From US10105357B2, “Indication of antibiotic drugs for preparation of cancer inhibition pharmaceutical composition” (LAUNX BIOMEDICAL CO., LTD., priority 2014, dated 2018)

Experiments:
Format in all cases: cell-based, human
[1] = test system: C-33A (Cervical carcinoma); test: Cell viability analysis, cervical cancer C-33A; settings: C-33A; repeated experiment
U-2OS = test: Cell viability analysis, osteosarcoma U-2OS; settings: U2OS; repeated experiment
[2] = test system: A375 (Amelanotic Melanoma); test: Cell viability analysis, skin cancer A375; settings: A375; repeated experiment
NIH: OVCAR-3 = test: Cell viability analysis, ovarian cancer NIH: OVCAR-3; settings: NIH-OVCAR-3; repeated experiment
BxPC-3 = test: Cell viability analysis, pancreatic cancer BxPC-3; settings: BxPC-3; repeated experiment
[3] = test system: MKN-45 (Gastric Adenocarcinoma); test: Cell viability analysis, gastric cancer MKN-45; settings: MKN-45; repeated experiment
[4] = test system: BCC (basal cell carcinoma); test: Cell viability analysis, skin cancer BCC; settings: BCC; repeated experiment
[5] = test system: MCF7 (Mammary Gland, Adenocarcinoma); test: Cell viability analysis, breast cancer MCF7; settings: MCF-7; repeated experiment
[6] = test system: HeLa (Cervix Adenocarcinoma); test: Cell viability analysis, cervical cancer HeLa; settings: HeLa; repeated experiment
T24 = test: Cell viability analysis, bladder cancer T24; settings: T24; repeated experiment
TOV-21G = test: Cell viability analysis, ovarian cancer TOV-21G; settings: TOV-21G; repeated experiment
AsPC-1 = test: Cell viability analysis, pancreatic cancer AsPC-1; settings: AsPC-1; repeated experiment
[7] = test system: SAS (Tongue squamous cell carcinoma); test: Cell viability analysis, tongue cancer SAS; settings: SAS; repeated experiment
[8] = test system: LoVo (Colorectal Adenocarcinoma); test: Cell viability analysis, colon cancer LoVo; settings: LoVo; repeated experiment
[9] = test system: HI650 (Lung Adenocarcinoma); test: Cell viability analysis, lung cancer HI650; settings: H1650; repeated experiment
[10] = test system: Hep3B (hepatocellular carcinoma); test: Cell viability analysis, hepatic cancer Hep3B; settings: Hep3B; repeated experiment
[11] = test system: MDA-MB-231 (Mammary Gland, Adenocarcinoma); test: Cell viability analysis, breast cancer MDA-MB-231; settings: MDA-MB231; repeated experiment
[12] = test system: A549 (Lung Adenocarcinoma); test: Cell viability analysis, lung cancer A549; settings: A549; repeated experiment
[13] = test system: 786-O (Renal adenocarcinoma); test: Cell viability analysis, renal cancer 786-O; settings: 786-O; repeated experiment

Cc1onc(-c2ccccc2Cl)c1C(=O)N[C@@H]1C(=O)N2[C@@H]1SC(C)(C)[C@@H]2C(=O)[O-].[Na+] [Cloxacillin sodium (Cloxacap)]
The results of antibiotic drug inhibiting cancer cell lines (cell viability analysis), C-33A [1]: 104.6 | The results of antibiotic drug inhibiting cancer cell lines (cell viability analysis), U2OS (U-2OS): 69.87 | The results of antibiotic drug inhibiting cancer cell lines (cell viability analysis), A375 [2]: 110.7 | The results of antibiotic drug inhibiting cancer cell lines (cell viability analysis), NIH-OVCAR-3 (NIH: OVCAR-3): 106.9 | The results of antibiotic drug inhibiting cancer cell lines (cell viability analysis), BxPC-3 (BxPC-3): 69.13 | The results of antibiotic drug inhibiting cancer cell lines (cell viability analysis), MKN-45 [3]: 111.3 | The results of antibiotic drug inhibiting cancer cell lines (cell viability analysis), BCC [4]: 116.6 | The results of antibiotic drug inhibiting cancer cell lines (cell viability analysis), MCF-7 [5]: 103.7 | The results of antibiotic drug inhibiting cancer cell lines (cell viability analysis), HeLa [6]: 120.1 | The results of antibiotic drug inhibiting cancer cell lines (cell viability analysis), T24 (T24): 100.9 | The results of antibiotic drug inhibiting cancer cell lines (cell viability analysis), TOV-21G (TOV-21G): 105.9 | The results of antibiotic drug inhibiting cancer cell lines (cell viability analysis), AsPC-1 (AsPC-1): 80 | The results of antibiotic drug inhibiting cancer cell lines (cell viability analysis), SAS [7]: 70.4 | The results of antibiotic drug inhibiting cancer cell lines (cell viability analysis), LoVo [8]: 98.38 | The results of antibiotic drug inhibiting cancer cell lines (cell viability analysis), H1650 [9]: 86.43 | The results of antibiotic drug inhibiting cancer cell lines (cell viability analysis), Hep3B [10]: 118.4 | The results of antibiotic drug inhibiting cancer cell lines (cell viability analysis), MDA-MB231 [11]: 101.6 | The results of antibiotic drug inhibiting cancer cell lines (cell viability analysis), A549 [12]: 98.33 | The results of antibiotic drug inhibiting cancer cell lines (cell viability analysis), 786-O [13]: 106.1
